System in the first test: not listed separately
Briefly: Inhibition of PMA-stimulated Il-17A production in mouse Th17 cells at 0.3 uM by live/dead fixable dead cell staining based flow cytometric analysis relative to control. It is filed as functional. In general terms: A flow cytometer gives signals particle by particle.
`COc1ccc(Cl)c(-c2ccc(NC(=O)c3c(F)cccc3F)cc2)c1`: the inhibition at 0.3 µM amounted to 71%.
The same measure, in the same setting: with `O=C(O)c1ccc(Cl)c(-c2ccc(NC(=O)c3c(F)cccc3F)cc2)c1` the figure was 7%.
The same measure, in the same setting: as for `COc1ccc(Cl)c(-c2ccc(NC(=O)c3c(F)cccc3F)cc2F)c1`, the figure is 82%; as for `COc1ccc(C)c(-c2ccc(NC(=O)c3c(F)cccc3F)cc2)c1`, 93%.
For `COc1ccc(Cl)c(-c2ccc(NC(=O)CC3CCOCC3)cc2)c1`, the inhibition at 0.3 µM was found to be 8%.
Same read-out and setting: with `COc1ccc(Cl)c(-c2ccc(NC(=O)C3CCCO3)cc2)c1` (configuration not stated) the figure was 30%; with `COc1ccc(Cl)c(-c2cccc(NC(=O)c3c(F)cccc3F)c2)c1`, 12%.
Same read-out and setting: with `Cc1ccc(-c2ccc(NC(=O)c3c(F)cccc3F)cc2)cn1` the figure was 4%; with `COc1ccc(Cl)c(-c2ccc(NC(=O)Cc3ccccc3)cc2)c1`, 33%.
The same measure, in the same setting: as for `COc1ccc(Cl)c(-c2ccc(NC(=O)C3CCN(C)CC3)cc2)c1`, the figure is 16%; as for `COc1ccc(Cl)c(-c2ccc(NC(=O)CC3CC3)cc2)c1`, 9%; as for `COc1ccc(Cl)c(-c2ccc(NC(=O)c3c(F)cccc3F)cn2)c1`, 29%.
As for `COc1ccc(Cl)c(-c2ccc(NC(=O)C(C)C)cc2)c1`, the inhibition at 0.3 µM was 22%.
With `COc1ccc(Cl)c(-c2ccc(NC(=O)C3CCOCC3)cc2)c1`, the inhibition at 0.3 µM is 35%.
On the same count and under the same terms, as for `COc1ccc(Cl)c(-c2ccc(NC(=O)c3c(F)cccc3F)cc2Cl)c1`, the figure is 75%.
The same measure, in the same setting: as for `O=C(Nc1ccc(-c2ccccc2)cc1)c1c(F)cccc1F`, the figure is 45%; as for `COc1ccc(Cl)c(-c2ccc(NC(=O)c3ncccc3F)cc2)c1`, 22%.
Same read-out and setting: as for `COc1ccc(Cl)c(-c2ccc(NC(=O)C3CCCCC3)cc2)c1`, the figure is 26%.
As for `Cn1cc(-c2ccc(NC(=O)c3c(F)cccc3F)cc2)cn1`, the inhibition at 0.3 µM was -7%.
On to `Cc1ccccc1-c1ccc(NC(=O)c2c(F)cccc2F)cc1`, for which the inhibition at 0.3 µM was determined as 60%.
The same measure, in the same setting: as for `COc1ccc(Cl)c(-c2ccc(NC(=O)c3c(F)cccc3Cl)cc2)c1`, the figure is 64%; as for `COc1ccc(Cl)c(-c2ccc(NC(C)=O)cc2)c1`, 11%.
`COc1ccc(Cl)c(-c2ccc(NC(=O)Cc3ccccc3F)cc2)c1`: the inhibition at 0.3 µM stood at 19%.
As for `COc1ccc(Cl)c(-c2ccc(NC(=O)CCc3ccccc3)cc2)c1`, the inhibition at 0.3 µM worked out at 24%.
Still for that read-out and setting: with `COc1ccc(Cl)c(-c2ccc(NC(=O)C3CCCC3)cc2)c1` the figure was 34%; with `O=C(Nc1ccc(-c2cc(OC(F)(F)F)ccc2Cl)cc1)c1c(F)cccc1F`, 97%.
Same read-out and setting: as for `COc1ccc(Cl)c(-c2ccc(NC(=O)c3ccccc3Cl)cc2)c1`, the figure is 39%; as for `O=C(Nc1ccc(-c2ccccc2Cl)cc1)c1c(F)cccc1F`, 48%; as for `O=C(Nc1ccc(-c2cccnc2)cc1)c1c(F)cccc1F`, 17%.
The same measure, in the same setting: with `COc1ccc(Cl)c(-c2ccc(NC(=O)c3ccccc3C(F)(F)F)cc2)c1` the figure was 25%.
On to `COc1ccc(Cl)c(-c2ccc(NC(=O)c3ccccc3)cc2)c1`, for which the inhibition at 0.3 µM was determined as 35%.
Same read-out and setting: as for `COCC(=O)Nc1ccc(-c2cc(OC)ccc2Cl)cc1`, the figure is 1%.
Regarding `COc1ccc(Cl)c(-c2ccc(NC(=O)C3CC3)cc2)c1`, the inhibition at 0.3 µM is 35%.
Same read-out and setting: with `COc1ccc(Cl)c(-c2ccc(NC(=O)c3ccccc3F)cc2)c1` the figure was 43%.

System in another test: not listed separately
Kind of test: (§1) Inhibition of PMA-stimulated Il-17A production in mouse Th17 cells by live/dead fixable dead cell staining based flow cytometric analysis. It is filed as functional.
`O=C(Nc1ccc(-c2cc(OC(F)(F)F)ccc2Cl)cc1)c1c(F)cccc1F` had an IC50 of 13 nM.

A further test is filed under the species Mus musculus. The description is as §1. The class given is functional.
With `O=C(Nc1ccc(-c2cc(OC(F)(F)F)ccc2Cl)cc1)c1c(F)cccc1F`, the inhibition result is “Dose-dependent effect”.

The target in another test is T1, Nuclear receptor ROR-gamma (Homo sapiens, UniProt P51449).
T1 sequence (P51449 whole entry): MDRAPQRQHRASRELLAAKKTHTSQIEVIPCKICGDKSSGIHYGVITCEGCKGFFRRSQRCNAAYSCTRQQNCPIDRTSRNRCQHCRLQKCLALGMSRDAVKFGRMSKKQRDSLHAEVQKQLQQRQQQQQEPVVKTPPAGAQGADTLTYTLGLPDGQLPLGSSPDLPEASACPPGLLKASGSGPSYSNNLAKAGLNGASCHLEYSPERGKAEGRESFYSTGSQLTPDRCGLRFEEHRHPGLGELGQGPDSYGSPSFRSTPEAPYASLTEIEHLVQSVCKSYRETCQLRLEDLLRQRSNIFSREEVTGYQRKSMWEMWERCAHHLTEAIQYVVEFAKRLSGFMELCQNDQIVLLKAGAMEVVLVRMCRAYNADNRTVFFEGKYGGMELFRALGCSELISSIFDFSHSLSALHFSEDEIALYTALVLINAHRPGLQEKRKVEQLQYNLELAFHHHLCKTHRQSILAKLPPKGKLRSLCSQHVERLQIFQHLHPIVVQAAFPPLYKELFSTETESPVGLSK
Kind of test: Inverse agonist activity at RORgammat (unknown origin) by FRET assay.
`O=C(Nc1ccc(-c2cc(OC(F)(F)F)ccc2Cl)cc1)c1c(F)cccc1F` gave an IC50 of over 50000 nM.

For orientation: inhibition means the drop in the measured response relative to a control, in per cent. By IC50 is commonly meant the point on the concentration scale where inhibition reaches its midpoint.

Values taken from ChEMBL document CHEMBL4190179 (Medchemcomm, 2016).
